Experimental data: publication PMC4076210, “Discovery of Novel AKT Inhibitors with Enhanced Anti-Tumor Effects in Combination with the MEK Inhibitor” (PLoS ONE, 2014)
Read-outs that look alike come from different tables or passages of the source.

Legend:
ALK4(h) = target: T1, ALK4(h) (Homo sapiens, UniProt P36896); experiment: Kinase panel; format: biochemical
T1 construct: purchased Millipore KinaseProfiler
T1 sequence (P36896 24-505): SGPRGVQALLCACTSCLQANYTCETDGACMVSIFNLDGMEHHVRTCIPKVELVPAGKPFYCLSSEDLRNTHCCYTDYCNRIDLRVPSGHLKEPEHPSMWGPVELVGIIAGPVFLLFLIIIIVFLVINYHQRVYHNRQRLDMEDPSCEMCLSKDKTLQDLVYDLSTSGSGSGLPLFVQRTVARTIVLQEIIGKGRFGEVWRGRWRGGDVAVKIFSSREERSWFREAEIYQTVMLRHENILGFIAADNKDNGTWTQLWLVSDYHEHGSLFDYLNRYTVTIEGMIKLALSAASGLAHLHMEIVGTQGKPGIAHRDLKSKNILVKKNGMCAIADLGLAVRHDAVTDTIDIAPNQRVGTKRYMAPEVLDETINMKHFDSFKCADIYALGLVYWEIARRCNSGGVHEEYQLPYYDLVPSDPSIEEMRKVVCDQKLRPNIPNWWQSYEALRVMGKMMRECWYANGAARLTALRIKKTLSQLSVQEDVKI

CDK3/cyclinE(h) = target: T2, CDK3/cyclinE(h) (Homo sapiens, UniProt Q00526); experiment: Kinase panel; format: biochemical
T2 construct: purchased Millipore KinaseProfiler
T2 sequence (Q00526 whole entry): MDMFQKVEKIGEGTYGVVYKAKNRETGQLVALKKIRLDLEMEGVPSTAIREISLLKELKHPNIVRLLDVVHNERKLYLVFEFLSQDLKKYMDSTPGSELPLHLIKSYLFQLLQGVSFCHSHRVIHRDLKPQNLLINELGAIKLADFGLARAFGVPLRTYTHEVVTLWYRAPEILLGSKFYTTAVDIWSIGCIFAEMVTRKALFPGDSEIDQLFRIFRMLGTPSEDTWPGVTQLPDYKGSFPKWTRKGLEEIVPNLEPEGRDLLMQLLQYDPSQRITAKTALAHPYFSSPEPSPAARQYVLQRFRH
T2 sequence (P24864 whole entry partner): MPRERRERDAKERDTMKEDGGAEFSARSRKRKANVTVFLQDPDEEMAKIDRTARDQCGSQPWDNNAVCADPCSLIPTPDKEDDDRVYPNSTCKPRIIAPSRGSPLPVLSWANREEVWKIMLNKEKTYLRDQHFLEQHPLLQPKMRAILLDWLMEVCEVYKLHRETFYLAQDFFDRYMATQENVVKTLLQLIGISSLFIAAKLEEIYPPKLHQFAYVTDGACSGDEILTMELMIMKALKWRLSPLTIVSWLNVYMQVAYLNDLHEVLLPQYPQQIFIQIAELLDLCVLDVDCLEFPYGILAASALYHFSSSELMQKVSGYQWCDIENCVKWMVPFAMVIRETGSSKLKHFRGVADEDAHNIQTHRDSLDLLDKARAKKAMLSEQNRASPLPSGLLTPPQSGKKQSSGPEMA

cKit(D816H)(h) = target: T3, cKit(D816H)(h) (Homo sapiens, UniProt P10721, D816H); experiment: Kinase panel; format: biochemical
T3 construct: purchased Millipore KinaseProfiler
T3 sequence (P10721 26-976 D816H): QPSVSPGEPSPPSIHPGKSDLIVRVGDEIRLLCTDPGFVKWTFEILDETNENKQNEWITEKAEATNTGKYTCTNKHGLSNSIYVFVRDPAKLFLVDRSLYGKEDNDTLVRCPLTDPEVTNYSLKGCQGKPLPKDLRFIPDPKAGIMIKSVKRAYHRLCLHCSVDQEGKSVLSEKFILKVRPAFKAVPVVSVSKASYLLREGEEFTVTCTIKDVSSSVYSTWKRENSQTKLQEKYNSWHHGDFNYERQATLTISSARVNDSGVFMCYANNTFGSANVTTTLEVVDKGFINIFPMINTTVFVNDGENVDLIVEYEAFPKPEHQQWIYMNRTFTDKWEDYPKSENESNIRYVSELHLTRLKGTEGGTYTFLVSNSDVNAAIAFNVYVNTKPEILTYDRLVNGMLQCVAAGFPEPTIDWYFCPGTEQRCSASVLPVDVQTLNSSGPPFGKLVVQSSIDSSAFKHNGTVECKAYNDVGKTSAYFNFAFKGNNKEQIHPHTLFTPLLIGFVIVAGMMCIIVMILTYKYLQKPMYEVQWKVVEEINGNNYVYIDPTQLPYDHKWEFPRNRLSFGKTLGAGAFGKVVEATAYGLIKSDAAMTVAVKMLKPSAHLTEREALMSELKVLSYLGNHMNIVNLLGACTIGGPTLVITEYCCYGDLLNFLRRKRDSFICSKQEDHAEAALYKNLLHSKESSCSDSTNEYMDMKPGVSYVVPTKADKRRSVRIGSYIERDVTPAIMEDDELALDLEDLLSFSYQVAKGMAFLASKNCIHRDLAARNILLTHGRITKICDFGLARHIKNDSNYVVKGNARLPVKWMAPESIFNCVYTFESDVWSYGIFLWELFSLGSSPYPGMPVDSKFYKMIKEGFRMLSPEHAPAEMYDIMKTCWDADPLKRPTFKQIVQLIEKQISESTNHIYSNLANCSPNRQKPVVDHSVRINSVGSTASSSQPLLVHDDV

EphB2(h) = target: T4, EphB2(h) (Homo sapiens, UniProt P29323); experiment: Kinase panel; format: biochemical
T4 construct: purchased Millipore KinaseProfiler
T4 sequence (P29323 19-1055): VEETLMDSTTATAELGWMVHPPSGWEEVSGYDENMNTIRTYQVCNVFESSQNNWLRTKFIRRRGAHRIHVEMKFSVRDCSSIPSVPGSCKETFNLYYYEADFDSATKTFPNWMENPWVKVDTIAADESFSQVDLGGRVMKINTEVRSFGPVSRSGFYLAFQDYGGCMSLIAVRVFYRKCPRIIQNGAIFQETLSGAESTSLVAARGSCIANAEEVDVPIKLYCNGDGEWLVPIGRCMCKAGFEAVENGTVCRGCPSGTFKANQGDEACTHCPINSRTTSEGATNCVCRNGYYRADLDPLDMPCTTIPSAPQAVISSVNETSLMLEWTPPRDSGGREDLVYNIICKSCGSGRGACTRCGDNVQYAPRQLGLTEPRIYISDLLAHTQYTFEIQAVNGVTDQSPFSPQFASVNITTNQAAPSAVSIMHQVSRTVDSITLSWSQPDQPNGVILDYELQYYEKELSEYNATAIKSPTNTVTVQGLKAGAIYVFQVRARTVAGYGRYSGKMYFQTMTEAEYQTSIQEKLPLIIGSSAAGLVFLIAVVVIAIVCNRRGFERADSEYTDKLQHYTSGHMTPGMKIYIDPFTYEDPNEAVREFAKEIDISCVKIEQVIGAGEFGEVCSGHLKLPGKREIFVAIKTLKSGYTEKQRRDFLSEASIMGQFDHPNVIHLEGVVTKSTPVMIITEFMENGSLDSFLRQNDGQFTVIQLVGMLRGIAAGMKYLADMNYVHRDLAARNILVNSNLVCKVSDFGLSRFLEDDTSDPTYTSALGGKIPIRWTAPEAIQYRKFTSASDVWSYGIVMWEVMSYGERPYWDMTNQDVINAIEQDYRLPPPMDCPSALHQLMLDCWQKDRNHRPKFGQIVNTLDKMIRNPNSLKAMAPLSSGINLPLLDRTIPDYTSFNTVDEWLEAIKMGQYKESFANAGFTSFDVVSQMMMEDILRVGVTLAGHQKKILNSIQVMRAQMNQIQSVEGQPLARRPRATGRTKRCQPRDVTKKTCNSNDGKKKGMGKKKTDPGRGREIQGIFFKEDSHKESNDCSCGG

IR(h) = target: T5, IR(h) (Homo sapiens, UniProt P06213); experiment: Kinase panel; format: biochemical
T5 construct: purchased Millipore KinaseProfiler
T5 sequence (P06213 28-1382): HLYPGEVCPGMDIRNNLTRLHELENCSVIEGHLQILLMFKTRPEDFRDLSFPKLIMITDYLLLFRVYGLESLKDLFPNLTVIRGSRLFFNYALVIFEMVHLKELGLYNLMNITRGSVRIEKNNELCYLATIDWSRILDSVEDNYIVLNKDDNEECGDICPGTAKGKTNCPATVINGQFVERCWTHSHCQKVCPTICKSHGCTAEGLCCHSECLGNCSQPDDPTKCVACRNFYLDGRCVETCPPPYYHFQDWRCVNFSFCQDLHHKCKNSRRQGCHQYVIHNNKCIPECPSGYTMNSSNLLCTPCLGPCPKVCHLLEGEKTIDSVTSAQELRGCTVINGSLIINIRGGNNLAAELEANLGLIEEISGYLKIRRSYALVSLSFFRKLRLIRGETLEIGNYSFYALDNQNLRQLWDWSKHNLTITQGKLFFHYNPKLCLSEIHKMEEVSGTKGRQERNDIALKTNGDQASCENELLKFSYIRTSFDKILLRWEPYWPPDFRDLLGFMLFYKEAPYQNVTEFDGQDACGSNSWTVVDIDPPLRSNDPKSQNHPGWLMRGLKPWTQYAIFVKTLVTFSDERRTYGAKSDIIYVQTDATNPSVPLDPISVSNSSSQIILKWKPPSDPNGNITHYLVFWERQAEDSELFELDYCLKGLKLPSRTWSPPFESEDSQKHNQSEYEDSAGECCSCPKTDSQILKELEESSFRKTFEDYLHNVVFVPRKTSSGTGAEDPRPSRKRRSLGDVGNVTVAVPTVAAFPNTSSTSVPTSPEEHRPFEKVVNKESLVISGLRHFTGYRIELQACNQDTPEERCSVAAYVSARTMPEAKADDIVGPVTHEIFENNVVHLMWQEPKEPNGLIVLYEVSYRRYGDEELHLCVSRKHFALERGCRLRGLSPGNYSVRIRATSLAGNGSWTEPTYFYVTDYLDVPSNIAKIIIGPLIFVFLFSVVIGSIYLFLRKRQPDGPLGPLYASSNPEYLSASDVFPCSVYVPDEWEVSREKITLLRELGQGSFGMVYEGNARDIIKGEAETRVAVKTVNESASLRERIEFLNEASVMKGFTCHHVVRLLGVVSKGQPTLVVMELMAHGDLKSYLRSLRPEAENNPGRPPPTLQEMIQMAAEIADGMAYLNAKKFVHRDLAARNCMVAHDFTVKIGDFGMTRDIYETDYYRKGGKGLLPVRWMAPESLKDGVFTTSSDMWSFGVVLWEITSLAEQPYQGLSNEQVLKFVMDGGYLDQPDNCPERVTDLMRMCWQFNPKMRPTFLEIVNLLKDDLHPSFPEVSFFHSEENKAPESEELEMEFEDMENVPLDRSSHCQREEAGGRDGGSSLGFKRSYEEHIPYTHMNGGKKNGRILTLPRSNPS

IRAK4(h) = target: T6, IRAK4(h) (Homo sapiens, UniProt Q9NWZ3); experiment: Kinase panel; format: biochemical
T6 construct: purchased Millipore KinaseProfiler
T6 sequence (Q9NWZ3 1-460): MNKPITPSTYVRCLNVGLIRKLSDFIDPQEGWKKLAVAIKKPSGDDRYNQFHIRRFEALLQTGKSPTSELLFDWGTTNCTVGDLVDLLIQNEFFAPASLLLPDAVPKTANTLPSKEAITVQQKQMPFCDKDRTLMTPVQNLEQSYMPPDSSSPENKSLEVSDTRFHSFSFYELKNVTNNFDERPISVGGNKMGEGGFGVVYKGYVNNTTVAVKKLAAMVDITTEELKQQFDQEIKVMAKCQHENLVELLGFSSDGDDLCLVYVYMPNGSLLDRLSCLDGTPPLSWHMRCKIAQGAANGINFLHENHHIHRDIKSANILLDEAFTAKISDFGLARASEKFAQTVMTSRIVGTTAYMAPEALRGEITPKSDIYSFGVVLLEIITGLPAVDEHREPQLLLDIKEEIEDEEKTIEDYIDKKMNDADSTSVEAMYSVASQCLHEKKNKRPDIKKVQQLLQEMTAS

IRR(h) = target: T7, IRR(h) (Homo sapiens, UniProt P14616); experiment: Kinase panel; format: biochemical
T7 construct: purchased Millipore KinaseProfiler
T7 sequence (P14616 27-1297): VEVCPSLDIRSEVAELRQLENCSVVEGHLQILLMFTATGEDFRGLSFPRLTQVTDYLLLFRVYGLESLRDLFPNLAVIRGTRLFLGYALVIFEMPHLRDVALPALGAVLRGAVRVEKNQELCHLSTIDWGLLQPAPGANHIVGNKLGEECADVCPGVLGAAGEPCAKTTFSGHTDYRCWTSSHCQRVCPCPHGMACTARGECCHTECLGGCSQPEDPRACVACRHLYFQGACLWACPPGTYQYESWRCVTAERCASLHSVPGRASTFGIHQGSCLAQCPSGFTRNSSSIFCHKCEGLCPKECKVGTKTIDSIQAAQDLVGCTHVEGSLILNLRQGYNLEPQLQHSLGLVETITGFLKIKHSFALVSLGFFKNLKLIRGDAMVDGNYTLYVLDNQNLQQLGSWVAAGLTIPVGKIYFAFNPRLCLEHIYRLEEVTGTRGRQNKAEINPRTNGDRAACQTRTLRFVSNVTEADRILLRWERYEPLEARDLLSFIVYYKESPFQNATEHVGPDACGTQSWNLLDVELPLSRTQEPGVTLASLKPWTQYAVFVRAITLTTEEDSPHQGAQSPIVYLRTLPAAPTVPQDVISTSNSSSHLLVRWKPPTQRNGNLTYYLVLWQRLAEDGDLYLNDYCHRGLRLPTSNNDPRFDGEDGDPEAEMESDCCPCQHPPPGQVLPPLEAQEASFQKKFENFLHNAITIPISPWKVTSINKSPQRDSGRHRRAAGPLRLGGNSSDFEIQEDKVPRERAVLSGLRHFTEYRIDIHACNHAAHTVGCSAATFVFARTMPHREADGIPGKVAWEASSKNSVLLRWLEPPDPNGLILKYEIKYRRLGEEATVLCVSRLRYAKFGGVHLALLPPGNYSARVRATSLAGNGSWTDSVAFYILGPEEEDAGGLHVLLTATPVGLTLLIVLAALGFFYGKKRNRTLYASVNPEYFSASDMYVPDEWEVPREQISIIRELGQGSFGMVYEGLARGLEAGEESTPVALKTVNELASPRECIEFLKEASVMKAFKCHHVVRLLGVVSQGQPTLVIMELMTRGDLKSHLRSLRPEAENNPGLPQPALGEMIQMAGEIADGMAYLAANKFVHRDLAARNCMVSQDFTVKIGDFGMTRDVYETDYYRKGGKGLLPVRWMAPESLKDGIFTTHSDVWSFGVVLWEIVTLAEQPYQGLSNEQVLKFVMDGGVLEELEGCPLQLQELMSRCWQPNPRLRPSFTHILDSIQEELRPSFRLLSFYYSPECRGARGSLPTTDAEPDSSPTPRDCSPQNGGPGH

[1] = Blood glucose after single oral dose; format: in vivo, mouse
Experimental: Blood glucose levels were determined from tail vein puncture in mice using a handheld glucometer. Plasma Insulin levels were using the Rat Ultrasensitive Insulin ELISA kit (Crystal Chem Inc).

`Cn1ncc(Cl)c1-c1cc(C(=O)N[C@H](CN)Cc2cccc(F)c2)sc1Cl` [GSK2110183] gave an inhibition at 0.5 µM (ALK4(h)) of 3%, an inhibition at 10 µM (ALK4(h)) of 0% and an inhibition at 0.5 µM (CDK3/cyclinE(h)) of 0%. The inhibition at 10 µM (CDK3/cyclinE(h)) was 20%, the inhibition at 0.5 µM (cKit(D816H)(h)) was -6% and the inhibition at 10 µM (cKit(D816H)(h)) was -3%. The inhibition at 0.5 µM (EphB2(h)) was -8%, the inhibition at 10 µM (EphB2(h)) was 4% and the inhibition at 0.5 µM (IR(h)) was 35%. It also gave an inhibition at 10 µM (IR(h)) of 32%, an inhibition at 0.5 µM (IRAK4(h)) of -15% and an inhibition at 10 µM (IRAK4(h)) of -5%. The inhibition at 0.5 µM (IRR(h)) was -11%, the inhibition at 10 µM (IRR(h)) was -8% and the “time for blood glucose to return to normal levels” value ([1]; 100 mg/kg single oral dose) was no more than 8 h. The blood glucose level ([1]; 100 mg/kg single oral dose, 2 h post dosing) was 211 mg/dL.

With `Cn1ncc(Cl)c1-c1cc(C(=O)N[C@H](CN)Cc2ccc(F)c(F)c2)oc1Cl` [GSK2141795] the inhibition at 0.5 µM (ALK4(h); 0.5 µM, read-out: % Inhibition) was -8%, the inhibition at 10 µM (ALK4(h); 10 µM, read-out: % Inhibition) was -18% and the inhibition at 0.5 µM (CDK3/cyclinE(h); 0.5 µM, read-out: % Inhibition) was -13%. For the same compound, the inhibition at 10 µM (CDK3/cyclinE(h); 10 µM, read-out: % Inhibition) was 30%, the inhibition at 0.5 µM (cKit(D816H)(h); 0.5 µM, read-out: % Inhibition) was -15% and the inhibition at 10 µM (cKit(D816H)(h); 10 µM, read-out: % Inhibition) was 43%. For the same compound, the inhibition at 0.5 µM (EphB2(h); 0.5 µM, read-out: % Inhibition) was -8%, the inhibition at 10 µM (EphB2(h); 10 µM, read-out: % Inhibition) was 0% and the inhibition at 0.5 µM (IR(h); 0.5 µM, read-out: % Inhibition) was -8%. The inhibition at 10 µM (IR(h); 10 µM, read-out: % Inhibition) was 41%, the inhibition at 0.5 µM (IRAK4(h); 0.5 µM, read-out: % Inhibition) was -12% and the inhibition at 10 µM (IRAK4(h); 10 µM, read-out: % Inhibition) was 0%. For the same compound, the inhibition at 0.5 µM (IRR(h); 0.5 µM, read-out: % Inhibition) was -16%, the inhibition at 10 µM (IRR(h); 10 µM, read-out: % Inhibition) was -11% and the blood glucose level ([1]; maximal tolerated dose of 30 mg/kg, daily) was 200 to 300 mg/dL. For the same compound, the “time for glucose to return to normal” value ([1]; single 30 mg/kg dose) was no more than 8 h and the blood glucose level ([1]; single 30 mg/kg dose, 2 h post dosing) was 200 mg/dL.
